Where two headings read alike, the source gives them in different places.
Key:
[1] = target: T1, human α1D-adrenoceptors (Homo sapiens, UniProt P25100); assay: Radioligand-receptor binding assay, human recombinant α1D-adrenoceptor, [3H]prazosin
T1 sequence (P25100 1-572): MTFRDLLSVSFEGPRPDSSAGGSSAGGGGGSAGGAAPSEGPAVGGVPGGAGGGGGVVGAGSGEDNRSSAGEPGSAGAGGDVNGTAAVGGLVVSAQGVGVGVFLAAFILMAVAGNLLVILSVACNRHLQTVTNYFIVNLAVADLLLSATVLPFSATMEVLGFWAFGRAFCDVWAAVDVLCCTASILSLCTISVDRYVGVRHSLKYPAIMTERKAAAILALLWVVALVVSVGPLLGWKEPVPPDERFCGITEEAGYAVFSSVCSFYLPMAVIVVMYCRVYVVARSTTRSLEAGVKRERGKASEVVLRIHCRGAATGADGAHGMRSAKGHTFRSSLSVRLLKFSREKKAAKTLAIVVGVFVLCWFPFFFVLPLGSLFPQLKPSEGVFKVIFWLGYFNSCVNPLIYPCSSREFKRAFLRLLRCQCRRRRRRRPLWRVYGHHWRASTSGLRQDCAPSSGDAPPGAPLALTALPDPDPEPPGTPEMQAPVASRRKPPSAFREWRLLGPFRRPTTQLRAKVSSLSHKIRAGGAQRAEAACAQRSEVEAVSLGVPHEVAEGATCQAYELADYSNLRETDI
Method: Chinese hamster ovary (CHO) cells which had been stably transfected with human α1A, α1B, or α1D-adrenoceptors (Keffel et al., Biochem. Biophys. Res. Commun., 2000, 272, 906–11) were cultured in an atmosphere of 5% CO2/95% air at 37° C. in F-12 HAM medium supplemented with 10% heat-inactivated fetal calf serum, 1 mM glutamine, 100 U/ml penicillin and 0.1 mg/ml streptomycin. Selection pressure was maintained by regular addition of geneticin to the culture medium.
Competitive radioligand binding to the cloned subtypes of […] was performed using [^3H]prazosin as the radioligand as described by Michel et al, Br. J. Pharmacol., 98, 883–889 (1989) with minor modifications. Experiments were performed in binding buffer consisting of 50 mM Tris, 10 mM MgCl2 and 0.5 mM EDTA at pH 7.5 in a total assay volume of 1000 μl. The protein content typically was 40–60 μg/assay. The mixtures were incubated at 25° C. for 45 minutes. Incubations were terminated by rapid vacuum filtration over GF/C filters followed by two washes of the filters each with 10 ml ice-cold incubation buffer. Non-specific binding was defined as binding in the presence of 10 μM phentolamine.
The IC50 & Kd were estimated by using the non-linear curve fitting program using G Pad Prism software. The value of inhibition constant Ki was calculated from competitive binding studies by using Cheng & Prusoff equation [Cheng & Prusoff, Biochem. Pharmacol., 22, 3099–3108 (1973)], Ki=IC50/(1+L/Kd), where L is the concentration of [^3H] prazosin used in the particular experiment. Kd of [^3H] prazosin was determined from saturation binding studies. The values were tabulated as mean±SEM of pKi values, where pKi is the −log of Ki value.

[2] = target: T2, 5-HT1A receptors (Homo sapiens, UniProt P08908); assay: biochemical; type: binding
T2 sequence (P08908 1-422): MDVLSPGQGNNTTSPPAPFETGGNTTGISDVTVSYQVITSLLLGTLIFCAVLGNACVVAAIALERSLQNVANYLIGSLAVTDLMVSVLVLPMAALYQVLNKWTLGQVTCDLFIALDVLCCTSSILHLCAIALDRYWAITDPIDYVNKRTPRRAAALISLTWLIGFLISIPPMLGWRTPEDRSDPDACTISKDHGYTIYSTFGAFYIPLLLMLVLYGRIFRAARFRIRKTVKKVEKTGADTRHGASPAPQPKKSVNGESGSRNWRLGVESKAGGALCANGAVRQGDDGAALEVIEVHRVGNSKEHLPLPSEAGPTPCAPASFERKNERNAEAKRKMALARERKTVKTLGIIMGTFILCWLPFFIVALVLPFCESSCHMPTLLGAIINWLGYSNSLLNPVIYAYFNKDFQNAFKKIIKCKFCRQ
Method: Receptor binding assays were performed using human recombinant 5HT1A receptors. […] Non-specific binding was defined by 10 μM Metergoline.

[3] = target: D-3 receptors (Homo sapiens, UniProt P35462); settings: reported, J. Med. Chem. 2000; cited from earlier work
[4] = target: T3, rat α1B-adrenoceptor (spleen) (Rattus norvegicus, UniProt P15823); assay: In-vitro functional study, agonist-induced contractile response on isolated rat spleen; type: biochemical
T3 sequence (P15823 1-515): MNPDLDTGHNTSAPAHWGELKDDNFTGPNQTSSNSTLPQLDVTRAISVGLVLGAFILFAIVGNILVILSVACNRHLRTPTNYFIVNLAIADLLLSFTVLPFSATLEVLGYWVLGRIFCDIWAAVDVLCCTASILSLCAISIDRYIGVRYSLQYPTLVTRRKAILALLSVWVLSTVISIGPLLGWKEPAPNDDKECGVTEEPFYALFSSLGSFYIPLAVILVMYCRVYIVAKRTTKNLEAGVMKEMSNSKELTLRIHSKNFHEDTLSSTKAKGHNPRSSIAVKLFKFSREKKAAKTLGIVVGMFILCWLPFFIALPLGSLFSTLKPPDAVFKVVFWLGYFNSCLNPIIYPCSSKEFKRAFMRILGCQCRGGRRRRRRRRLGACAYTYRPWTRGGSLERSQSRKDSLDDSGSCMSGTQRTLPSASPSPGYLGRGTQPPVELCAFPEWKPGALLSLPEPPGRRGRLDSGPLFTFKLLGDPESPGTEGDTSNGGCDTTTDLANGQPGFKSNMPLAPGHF
Method: Aorta, prostate and spleen tissues were isolated from urethane anaesthetized (1.5 gm/kg) male wistar rats. Isolated tissues were mounted in organ bath containing Krebs Henseleit buffer of following compostion (mM): NaCl 118; KCl 4.7; CaCl2 2.5; MgSO4.7H2O 1.2; NaHCO3 25; KH2PO4 1.2; glucose 11.5. Buffer was maintained at 37° C. and aerated with a mixture of 95% O2 and 5% CO2. A resting tension of 2 g (aorta) or 1 g (spleen and prostate) was applied to tissues. Contractile response was monitored using a force displacement transducer and recorded on chart recorders. Tissues were allowed to equilibrate for 2 hours. At the end of equilibration period, concentration response curves to norepinephrine (aorta) and phenylepinephrine (spleen and prostate) were obtained in absence and presence of tested compound (at concentrations of […]). Antagonist affinities were calculated and expressed as pKB vales in Table II.
To compare the differences in pKB at the α1-arenrenoceptor subtypes one-way ANOVA followed by Dunett ‘t’ test was applied. A p<0.05 was considered statistically significant.

Chain of D-3 receptors (P35462 whole entry): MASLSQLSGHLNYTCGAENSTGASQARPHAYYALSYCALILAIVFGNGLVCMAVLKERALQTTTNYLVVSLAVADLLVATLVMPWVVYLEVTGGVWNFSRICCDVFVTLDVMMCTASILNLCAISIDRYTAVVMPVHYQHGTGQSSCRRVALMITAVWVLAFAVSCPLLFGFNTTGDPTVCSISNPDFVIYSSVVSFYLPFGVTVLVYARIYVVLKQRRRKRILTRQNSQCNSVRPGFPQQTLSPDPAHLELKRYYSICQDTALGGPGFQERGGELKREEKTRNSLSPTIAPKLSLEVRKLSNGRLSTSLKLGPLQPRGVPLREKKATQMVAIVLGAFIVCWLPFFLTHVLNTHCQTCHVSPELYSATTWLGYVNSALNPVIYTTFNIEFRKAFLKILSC

| Compound | Ki ([1]; human recombinant receptors in CHO cells, mean ± SEM, read-out: pKi α1D (converted)) [pM] | Ki ([2]; human recombinant receptors, read-out: PKi 5HT1A (converted)) [pM] | affinity for D-3 receptors [3] | Kb ([4]; rat spleen, phenylepinephrine-induced contraction, *p < 0.05 vs pKB at prostate tissue, read-out: pKB α1B (converted)) [pM] | Ki [1] [pM] | Ki [2] [pM] | fold greater α1A versus 5HT1A selectivity as compared to tamsulosin ([2]; Tables I and III) [fold] | fold lower affinity for 5HT1A receptors than tamsulosin ([2]; human recombinant receptors) [fold] | Kb [4] [pM] | melting point [°C] |
| --- | --- | --- | --- | --- | --- | --- | --- | --- | --- | --- |
| CCOc1ccccc1OCCNC(C)Cc1ccc(OC)c(S(N)(=O)=O)c1 (single isomer, unassigned; (-)) [Tamsulosin, (−) isomer of 5-[2-[2-(2-ethoxyphenoxy)ethylamino]-2-methylethyl]-2-methoxybenzene sulfonamide, reference compound] | 81.3 | 794 | subnanomolar affinity | 275 | – | – | – | – | – | – |
| CCOc1ccccc1OCCN[C@H](C)Cc1ccc(O)c(S(N)(=O)=O)c1 [Formula I, R (−)-5-[2-[[2-(2-ethoxyphenoxy)ethyl]amino]propyl]-2-hydroxybenzenesulfonamide] | – | – | – | – | 107 | 9770 | 27 | 12.6 | 501 | 159.5 |

Reference: US7084301B2 (Ranbaxy Laboratories Limited, priority 2003, dated 2006)
